{"source": "patent US10466244B2", "about": "“Methods and materials for identifying therapeutic response in chronic myeloid leukemia” (RAJIV GANDHI CENTRE FOR BIOTECHNOLOGY, priority 2013, dated 2019)", "origin": "cited, not measured here", "test_system": "BCR-ABL", "conditions": "relative to imatinib", "data": [{"smiles": "Cc1cn(-c2cc(NC(=O)c3ccc(C)c(Nc4nccc(-c5cccnc5)n4)c3)cc(C(F)(F)F)c2)cn1", "note": "[Nilotinib, nilotinib]", "values": [{"measurement": "increased potency compared with imatinib against BCR-ABL", "value": "20- to 30 fold"}]}]}
